Assay results published in patent US20070049564A1 (Wyeth, priority 2005, published 2007).
In brackets after ≈: the same amount, converted by molar mass. Like-named read-outs stand apart in the source and are kept apart here.

Key:
Staph. = experiment: Range of MIC for Staph. strains, including MRSA; settings: Staphylococcus aureus
Staph. aureus Smith = experiment: In vivo activity (oral, iv; ED50) against Staph. aureus Smith in mice
Method: Representative examples of compounds of Formula I were tested for the oral efficacy using S. aureus Smith in mice.

E. coli = experiment: Range of MIC for E. coli strains; settings: Escherichia coli
E. coli #311 = experiment: In vivo activity (oral, iv; ED50) against E. coli in mice; settings: Escherichia coli
From the text: . […] Smith and E. Coli #311 in mammals.
Results of the tests (MIC, oral and IV) are list in Table 7.

[1] = MRSA, read-out: Range of MIC, Staph (Mouse Serum)
[2] = Staphylococcus aureus, in Mus musculus, po, read-out: ED50 Staph Smith SOD
[3] = iv, read-out: ED50 Staph Smith SIV
[4] = 20 h, read-out: Range of MIC, E. coli (Mouse Serum)
[5] = read-out: Range of MIC, E. coli (Water)
[6] = single intravenous dose (SIV), read-out: ED50 E. coli #311 SIV
[7] = single oral dose (SOD), read-out: ED50 E. coli #311 SOD
[8] = MRSA, read-out: Range of MIC, Staph (Water)
[9] = read-out: Minimum inhibitory concentration (MIC), Staph (Human Serum)

Row | SMILES | MIC (Staph.; [1]) [µg/mL] | ED50 (Staph. aureus Smith; [2]) [mg/kg] | ED50 (Staph. aureus Smith; [3]) [mg/kg] | MIC (E. coli; [4]) [µg/mL] | MIC (E. coli; [5]) [µg/mL] | ED50 (E. coli #311; [6]) [mg/kg] | ED50 (E. coli #311; [7]) [mg/kg] | MIC (Staph.; [8]) [µg/mL] | MIC (Staph.; [9]) [µg/mL] | MIC (Staph.; read-out: Minimum inhibitory concentration (MIC), Staph (Water)) [µg/mL]
1 | CN(C)c1cc(NC(=O)CN(C(=O)OCOC(=O)C(c2ccccc2)c2ccccc2)C(C)(C)C)c(O)c2c1C[C@H]1C[C@H]3[C@H](N(C)C)C(O)=C(C(N)=O)C(=O)[C@@]3(O)C(O)=C1C2=O [Example 74, ({[(2-{[(5aR,6aS,7S,10aS)-9-(aminocarbonyl)-4,7-bis(dimethylamino)-1,8,10a,11-tetrahydroxy-10,12-dioxo-5,5a,6,6a,7,10,10a,12-octahydrotetracen-2-yl]amino}-2-oxoethyl)(tert-butyl)amino]carbonyl}oxy)methyl diphenylacetate] | 0.5 to 4 (≈ 0.586 to 4.68 µM) | > 32 | 1.08 | 0.25 to 1 (≈ 0.293 to 1.17 µM) | > 64 | > 4 | > 32 |  |  | 
2 | CC(C)Oc1ccc(C(=O)OCOC(=O)N(CC(=O)Nc2cc(N(C)C)c3c(c2O)C(=O)C2=C(O)[C@]4(O)C(=O)C(C(N)=O)=C(O)[C@@H](N(C)C)[C@@H]4C[C@@H]2C3)C(C)(C)C)cc1 [Example 96, ({[(2-{[(5aR,6aS,7S,10aS)-9-(aminocarbonyl)-4,7-bis(dimethylamino)-1,8,10a,11-tetrahydroxy-10,12-dioxo-5,5a,6,6a,7,10,10a,12-octahydrotetracen-2-yl]amino}-2-oxoethyl)(tert-butyl)amino]carbonyl}oxy)methyl 4-isopropoxybenzoate] | 0.25 to 1 (≈ 0.304 to 1.22 µM) | 16 to 32 | 1 to 2 | 0.25 to 1 (≈ 0.304 to 1.22 µM) |  | 2 to 4 | > 32 | 4 to 16 (≈ 4.87 to 19.5 µM) |  | 
3 | CCCCCCCOc1ccc(C(=O)OCOC(=O)N(CC(=O)Nc2cc(N(C)C)c3c(c2O)C(=O)C2=C(O)[C@]4(O)C(=O)C(C(N)=O)=C(O)[C@@H](N(C)C)[C@@H]4C[C@@H]2C3)C(C)(C)C)cc1 [Example 102, ({[(2-{[(5aR,6aS,7S,10aS)-9-(aminocarbonyl)-4,7-bis(dimethylamino)-1,8,10a,11-tetrahydroxy-10,12-dioxo-5,5a,6,6a,7,10,10a,12-octahydrotetracen-2-yl]amino}-2-oxoethyl)(tert-butyl)amino]carbonyl}oxy)methyl 4-(heptyloxy)benzoate] | 0.5 to 1 (≈ 0.569 to 1.14 µM) | 19.8 | 1.59 | 0.5 to 1 (≈ 0.569 to 1.14 µM) | > 64 | 2 to 4 | > 32 |  | > 64 | 
4 | CN(C)c1cc(NC(=O)CN(C(=O)OCOC(=O)c2ccc(C(F)(F)F)cc2)C(C)(C)C)c(O)c2c1C[C@H]1C[C@H]3[C@H](N(C)C)C(O)=C(C(N)=O)C(=O)[C@@]3(O)C(O)=C1C2=O [Example 55, ({[(2-{[(5aR,6aS,7S,10aS)-9-(aminocarbonyl)-4,7-bis(dimethylamino)-1,8,10a,11-tetrahydroxy-10,12-dioxo-5,5a,6,6a,7,10,10a,12-octahydrotetracen-2-yl]amino}-2-oxoethyl)(tert-butyl)amino]carbonyl}oxy)methyl 4-(trifluoromethyl)benzoate] | 1 to 2 (≈ 1.2 to 2.4 µM) | > 16 | 1.81 | 0.5 to 8 (≈ 0.601 to 9.62 µM) |  | 4.69 | 32 | 2 to 8 (≈ 2.4 to 9.62 µM) | 1 to 4 (≈ 1.2 to 4.81 µM) | 2 to 8 (≈ 2.4 to 9.62 µM)
5 | CN(C)c1cc(NC(=O)CN(C(=O)OCOC(=O)c2ccc(-c3ccccc3)cc2)C(C)(C)C)c(O)c2c1C[C@H]1C[C@H]3[C@H](N(C)C)C(O)=C(C(N)=O)C(=O)[C@@]3(O)C(O)=C1C2=O [Example 71, ({[(2-{[(5aR,6aS,7S,10aS)-9-(aminocarbonyl)-4,7-bis(dimethylamino)-1,8,10a,11-tetrahydroxy-10,12-dioxo-5,5a,6,6a,7,10,10a,12-octahydrotetracen-2-yl]amino}-2-oxoethyl)(tert-butyl)amino]carbonyl}oxy)methyl 1,1′-biphenyl-4-carboxylate] | 0.5 to 1 (≈ 0.595 to 1.19 µM) | > 32 | 1 | 0.12 to 0.25 (≈ 0.143 to 0.298 µM) | > 64 | > 4 | > 32 | 32 to 64 (≈ 38.1 to 76.2 µM) |  | 
